# Reference: ChEMBL document CHEMBL3421575, “Cyclopropyl-containing positive allosteric modulators of metabotropic glutamate receptor subtype 5” (Bioorg Med Chem Lett, 2015)
# Assays:
# [1] = Cytotoxicity against mouse BV2 cells assessed as cell viability by cytotox nonradioactive assay; format: cell-based; conditions: bv-2
# mGluR5 = assay: Selectivity index, ratio of cytotoxicity for mouse BV2 cells to IC50 for mGluR5 in mouse BV2 cells; format: toxicity, cell-based, BV-2; conditions: read-out: Selectivity Index
# [2] = biological target: Metabotropic glutamate receptor 5 (Mus musculus, UniProt Q3UVX5); assay: Positive allosteric modulation at mGluR5 in mouse BV2 cells assessed as inhibition of LPS-induced NO production incubated for 1 hr prior to LPS challenge measured after 24 hrs by Griess assay; format: cell-based, BV-2
# Sequence of Metabotropic glutamate receptor 5 (Q3UVX5 whole entry): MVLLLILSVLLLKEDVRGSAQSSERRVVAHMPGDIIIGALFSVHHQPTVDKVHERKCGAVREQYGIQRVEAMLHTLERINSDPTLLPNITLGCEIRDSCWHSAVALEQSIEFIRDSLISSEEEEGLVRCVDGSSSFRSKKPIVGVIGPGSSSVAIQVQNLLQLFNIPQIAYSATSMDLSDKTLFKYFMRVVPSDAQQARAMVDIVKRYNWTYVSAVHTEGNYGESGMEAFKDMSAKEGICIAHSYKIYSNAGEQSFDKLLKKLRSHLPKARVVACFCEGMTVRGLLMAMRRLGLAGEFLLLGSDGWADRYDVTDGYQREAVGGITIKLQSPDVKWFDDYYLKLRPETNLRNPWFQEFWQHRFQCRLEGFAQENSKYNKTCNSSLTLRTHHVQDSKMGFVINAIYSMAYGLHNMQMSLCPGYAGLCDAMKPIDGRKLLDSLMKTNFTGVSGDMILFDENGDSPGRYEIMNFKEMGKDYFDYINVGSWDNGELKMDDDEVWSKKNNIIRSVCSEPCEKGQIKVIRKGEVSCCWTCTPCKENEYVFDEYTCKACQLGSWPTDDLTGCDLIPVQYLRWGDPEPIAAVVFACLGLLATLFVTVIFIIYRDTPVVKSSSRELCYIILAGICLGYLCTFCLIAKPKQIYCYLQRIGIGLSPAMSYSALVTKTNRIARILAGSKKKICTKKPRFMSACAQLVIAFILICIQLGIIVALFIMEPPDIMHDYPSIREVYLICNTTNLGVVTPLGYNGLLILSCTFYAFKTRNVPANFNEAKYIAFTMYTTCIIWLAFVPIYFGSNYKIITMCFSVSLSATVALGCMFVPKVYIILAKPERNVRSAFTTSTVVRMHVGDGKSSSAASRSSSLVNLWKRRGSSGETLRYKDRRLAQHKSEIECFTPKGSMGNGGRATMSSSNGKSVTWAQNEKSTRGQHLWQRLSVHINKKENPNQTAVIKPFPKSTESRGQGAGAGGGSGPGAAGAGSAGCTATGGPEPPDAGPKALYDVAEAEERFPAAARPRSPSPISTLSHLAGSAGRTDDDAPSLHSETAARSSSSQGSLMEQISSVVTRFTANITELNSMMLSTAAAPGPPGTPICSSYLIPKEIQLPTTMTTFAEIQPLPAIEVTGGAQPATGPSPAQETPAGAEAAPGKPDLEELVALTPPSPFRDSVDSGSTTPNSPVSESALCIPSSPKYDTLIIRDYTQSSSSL
Compound,IC50 [2],Cytotoxic concentration [1],selectivity ratio (mGluR5)
Fc1cccc(/C=N/N=C/c2cccc(F)c2)c1,,500 µM,
O=C(Nc1ccccc1F)[C@H]1C[C@@H]1c1cccc(F)c1 (racemic),210 µM,1000 µM,4.76
O=C(Nc1ccccc1Cl)[C@H]1C[C@@H]1c1cccc(F)c1 (racemic),180 µM,1000 µM,5.68
COc1cc(Br)ccc1NC(=O)[C@H]1C[C@@H]1c1cccc(Cl)c1 (racemic),230 µM,1000 µM,4.37
O=C(N[C@H]1C[C@@H]1c1cccc(F)c1)c1ccc([N+](=O)[O-])cc1 (racemic),200 µM,200 µM,1.02
O=C(N[C@H]1C[C@@H]1c1cccc(F)c1)c1ccccn1 (racemic),170 µM,800 µM,4.6
O=C(N[C@H]1C[C@@H]1c1cccc(F)c1)c1cccc(Cl)c1 (relative stereo),200 µM,1000 µM,5.03

# The remaining compounds from weak to strong by IC50 [2], led by results:
IC50 [2],Compound,Cytotoxic concentration [1],selectivity ratio (mGluR5)
160 µM,O=C(Nc1ccc(F)cc1)[C@H]1C[C@@H]1c1cccc(F)c1 (racemic),1000 µM,6.25
130 µM,O=C(N[C@H]1C[C@@H]1c1cccc(F)c1)c1cccc([N+](=O)[O-])c1 (racemic),400 µM,3.01
71 µM,O=C(Nc1ccccc1Cl)[C@H]1C[C@@H]1c1cccc(Cl)c1 (relative stereo),1000 µM,14.1
67 µM,O=C(Nc1nc2ccccc2[nH]1)[C@H]1C[C@@H]1c1cccc(Cl)c1 (racemic),400 µM,5.96
58 µM,O=C(Nc1ccc(F)cc1)[C@H]1C[C@@H]1c1cccc(Cl)c1 (relative stereo),1000 µM,17.4
46 µM,COc1cc(Br)ccc1NC(=O)[C@H]1C[C@@H]1c1cccc(F)c1 (racemic),1000 µM,21.8
46 µM,O=C(Nc1nc2ccccc2s1)[C@H]1C[C@@H]1c1cccc(F)c1 (racemic),300 µM,6.49
30 µM,O=C(N[C@H]1C[C@@H]1c1cccc(F)c1)c1cccc(F)c1 (racemic),1000 µM,33
21 µM,O=C(Nc1nc2ccccc2[nH]1)[C@H]1C[C@@H]1c1cccc(F)c1 (racemic),300 µM,14.6
